The values that follow are results of earlier work, collected in US20070009589A1, “EXTENDED RELEASE COMPOSITIONS” (priority 2005, published 2007).

Structures are written as SMILES.

The conditions of data set [1]: in water.

For `COCCc1ccc(OCC(O)CNC(C)C)cc1` (stereo not drawn) [Metoprolol], the “Log P” value is listed as 2.48. Besides, in data set [1], the water solubility entry is reported as “low water solubility”.
Consider `COCCc1ccc(OCC(O)CNC(C)C)cc1` (racemic) [Metoprolol succinate, (±)-1-(isopropylamino)-3-[p-(2-methoxyethyl)phenoxy]-2-propanol succinate (2:1)], for which the water solubility entry in data set [1] was “freely soluble in water”.

What is called Log P is the decadic logarithm of the partition coefficient of the neutral form, usually between octanol and water.
